Results published in ChEMBL document CHEMBL1201862, “PubChem BioAssay data set” (2004).
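96-well plates; 48 h exposure; 5 concentrations. Endpoints by linear interpolation between flanking doses. Not reached: highest tested concentration assigned. GI50: concentration for 50% inhibition of growth.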 Activity calls are given as the source filed them. Rule as the data show it: active = GI50 up to about 1.1 µM and inactive = higher.

Legend:
Test in all cases: inhibition of tumour cell growth, NCI panel, 48 h
786-0 = test system: 786-0
A498 = test system: A498
A549 = test system: A549
ACHN = test system: ACHN
CAKI-1 = test system: CAKI-1
CCRF-CEM = test system: CCRF-CEM
COLO 205 = test system: COLO 205
DU-145 = test system: DU-145
EKVX = test system: EKVX
HCC 2998 = test system: HCC 2998
HCT-116 = test system: HCT-116
HCT-15 = test system: HCT-15
HL-60 = test system: HL-60
HOP-62 = test system: HOP-62
HOP-92 = test system: HOP-92
HT-29 = test system: HT-29
Hs-578T = test system: Hs-578T
IGROV-1 = test system: IGROV-1
K562 = test system: K562
KM12 = test system: KM12
LOX IMVI = test system: LOX IMVI
M14 = test system: M14
MCF7 = test system: MCF7
MDA-MB-231 = test system: MDA-MB-231
MDA-MB-435 = test system: MDA-MB-435
MOLT-4 = test system: MOLT-4
Malme-3M = test system: Malme-3M
NCI-H226 = test system: NCI-H226
NCI-H23 = test system: NCI-H23
NCI-H460 = test system: NCI-H460
NCI-H522 = test system: NCI-H522
NCI/ADR-RES = test system: NCI/ADR-RES
OVCAR-3 = test system: OVCAR-3
OVCAR-4 = test system: OVCAR-4
OVCAR-5 = test system: OVCAR-5
OVCAR-8 = test system: OVCAR-8
PC-3 = test system: PC-3
RPMI-8226 = test system: RPMI-8226
RXF 393 = test system: RXF 393
SF-268 = test system: SF-268
SF-295 = test system: SF-295
SF-539 = test system: SF-539
SK-MEL-28 = test system: SK-MEL-28
SK-MEL-2 = test system: SK-MEL-2
SK-MEL-5 = test system: SK-MEL-5
SK-OV-3 = test system: SK-OV-3
SN12C = test system: SN12C
SNB-19 = test system: SNB-19
SNB-75 = test system: SNB-75
SR = test system: SR
SW-620 = test system: SW-620
T47D = test system: T47D
TK-10 = test system: TK-10
U-251 = test system: U-251
UACC-257 = test system: UACC-257
UACC-62 = test system: UACC-62
MDA-N = test system: MDA-N
UO-31 = test system: UO-31

Question: With `Fc1c(F)c(F)c2c(c1F)CSc1nc3ccccc3n1-2` as the compound, how does the GI50 (786-0) read?
Answer: > 100 µM (inactive)

Question: What about the GI50 (A498) of the same compound?
Answer: > 100 µM (inactive)

Question: And the GI50 (A549)?
Answer: > 100 µM (inactive)

Question: And the GI50 (ACHN)?
Answer: > 100 µM (inactive)

Question: What about the GI50 (CAKI-1) of the same compound?
Answer: > 100 µM (inactive)

Question: What about the GI50 (CCRF-CEM) of the same compound?
Answer: > 100 µM (inactive)

Question: And the GI50 (COLO 205)?
Answer: > 100 µM (inactive)

Question: And the GI50 (DU-145)?
Answer: > 100 µM (inactive)

Question: What about the GI50 (EKVX) of the same compound?
Answer: 5.16 µM (inactive)

Question: And the GI50 (HCC 2998)?
Answer: > 100 µM (inactive)

Question: What about the GI50 (HCT-116) of the same compound?
Answer: > 100 µM (inactive)

Question: What about the GI50 (HCT-15) of the same compound?
Answer: > 100 µM

Question: What about the GI50 (HL-60) of the same compound?
Answer: > 100 µM (inactive)

Question: What about the GI50 (HOP-62) of the same compound?
Answer: > 100 µM (inactive)

Question: And the GI50 (HOP-92)?
Answer: > 100 µM (inactive)

Question: And the GI50 (HT-29)?
Answer: > 100 µM (inactive)

Question: What about the GI50 (Hs-578T) of the same compound?
Answer: > 100 µM (inactive)

Question: And the GI50 (IGROV-1)?
Answer: > 100 µM (inactive)

Question: What about the GI50 (K562) of the same compound?
Answer: > 100 µM (inactive)

Question: And the GI50 (KM12)?
Answer: > 100 µM (inactive)

Question: What about the GI50 (LOX IMVI) of the same compound?
Answer: > 100 µM (inactive)

Question: And the GI50 (M14)?
Answer: > 100 µM (inactive)

Question: What about the GI50 (MCF7) of the same compound?
Answer: > 100 µM (inactive)

Question: What about the GI50 (MDA-MB-231) of the same compound?
Answer: > 100 µM (inactive)

Question: And the GI50 (MDA-MB-435)?
Answer: > 100 µM (inactive)

Question: What about the GI50 (MOLT-4) of the same compound?
Answer: > 100 µM (inactive)

Question: And the GI50 (Malme-3M)?
Answer: > 100 µM (inactive)

Question: And the GI50 (NCI-H226)?
Answer: > 100 µM (inactive)

Question: What about the GI50 (NCI-H23) of the same compound?
Answer: > 100 µM (inactive)

Question: What about the GI50 (NCI-H460) of the same compound?
Answer: > 100 µM (inactive)

Question: What about the GI50 (NCI-H522) of the same compound?
Answer: > 100 µM (inactive)

Question: What about the GI50 (NCI/ADR-RES) of the same compound?
Answer: > 100 µM (inactive)

Question: What about the GI50 (OVCAR-3) of the same compound?
Answer: > 100 µM (inactive)

Question: What about the GI50 (OVCAR-4) of the same compound?
Answer: > 100 µM (inactive)

Question: What about the GI50 (OVCAR-5) of the same compound?
Answer: > 100 µM (inactive)

Question: What about the GI50 (OVCAR-8) of the same compound?
Answer: > 100 µM (inactive)

Question: And the GI50 (PC-3)?
Answer: > 100 µM (inactive)

Question: What about the GI50 (RPMI-8226) of the same compound?
Answer: > 100 µM (inactive)

Question: And the GI50 (RXF 393)?
Answer: > 100 µM (inactive)

Question: What about the GI50 (SF-268) of the same compound?
Answer: > 100 µM (inactive)

Question: And the GI50 (SF-295)?
Answer: > 100 µM (inactive)

Question: What about the GI50 (SF-539) of the same compound?
Answer: > 100 µM (inactive)

Question: What about the GI50 (SK-MEL-28) of the same compound?
Answer: > 100 µM (inactive)

Question: And the GI50 (SK-MEL-2)?
Answer: > 100 µM (inactive)

Question: What about the GI50 (SK-MEL-5) of the same compound?
Answer: > 100 µM (inactive)

Question: What about the GI50 (SK-OV-3) of the same compound?
Answer: > 100 µM (inactive)

Question: And the GI50 (SN12C)?
Answer: > 100 µM (inactive)

Question: And the GI50 (SNB-19)?
Answer: > 100 µM (inactive)

Question: And the GI50 (SNB-75)?
Answer: > 100 µM (inactive)

Question: And the GI50 (SR)?
Answer: > 100 µM (inactive)

Question: What about the GI50 (SW-620) of the same compound?
Answer: > 100 µM (inactive)

Question: What about the GI50 (T47D) of the same compound?
Answer: > 100 µM (inactive)

Question: And the GI50 (TK-10)?
Answer: > 100 µM (inactive)

Question: What about the GI50 (U-251) of the same compound?
Answer: > 100 µM (inactive)

Question: What about the GI50 (UACC-257) of the same compound?
Answer: > 100 µM (inactive)

Question: And the GI50 (UACC-62)?
Answer: > 100 µM (inactive)

Question: `Cc1ccc(S(=O)(=O)NCCSCCSCCNS(=O)(=O)c2ccc(C)cc2)cc1` was tested. Which GI50 (A498) did it give?
Answer: 10 µM (inactive)

Question: And the GI50 (A549)?
Answer: 30.5 µM (inactive)

Question: What about the GI50 (ACHN) of the same compound?
Answer: 48.6 µM (inactive)

Question: What about the GI50 (CCRF-CEM) of the same compound?
Answer: 36.9 µM (inactive)

Question: And the GI50 (COLO 205)?
Answer: 19.4 µM (inactive)

Question: And the GI50 (DU-145)?
Answer: 51.2 µM (inactive)

Question: And the GI50 (HCC 2998)?
Answer: 39.4 µM (inactive)

Question: And the GI50 (HCT-116)?
Answer: 34.7 µM (inactive)

Question: What about the GI50 (HOP-92) of the same compound?
Answer: 22 µM (inactive)

Question: And the GI50 (HT-29)?
Answer: 28.6 µM (inactive)

Question: And the GI50 (Hs-578T)?
Answer: 47.2 µM (inactive)

Question: What about the GI50 (K562) of the same compound?
Answer: 48.6 µM (inactive)

Question: And the GI50 (KM12)?
Answer: 25.6 µM (inactive)

Question: What about the GI50 (LOX IMVI) of the same compound?
Answer: 25.4 µM (inactive)

Question: What about the GI50 (MCF7) of the same compound?
Answer: 38.9 µM (inactive)

Question: And the GI50 (MDA-N)?
Answer: 56 µM (inactive)

Question: What about the GI50 (MOLT-4) of the same compound?
Answer: 34 µM (inactive)

Question: What about the GI50 (NCI-H226) of the same compound?
Answer: 49 µM (inactive)

Question: What about the GI50 (NCI-H460) of the same compound?
Answer: 25.4 µM (inactive)

Question: And the GI50 (NCI-H522)?
Answer: 62.5 µM (inactive)

Question: What about the GI50 (NCI/ADR-RES) of the same compound?
Answer: 24 µM (inactive)

Question: And the GI50 (OVCAR-4)?
Answer: 34.8 µM (inactive)

Question: And the GI50 (OVCAR-8)?
Answer: 47.2 µM (inactive)

Question: What about the GI50 (PC-3) of the same compound?
Answer: 22.6 µM (inactive)

Question: What about the GI50 (RXF 393) of the same compound?
Answer: 56.2 µM (inactive)

Question: And the GI50 (SF-268)?
Answer: 24 µM (inactive)

Question: What about the GI50 (SF-295) of the same compound?
Answer: 45.8 µM (inactive)

Question: What about the GI50 (SK-MEL-28) of the same compound?
Answer: > 100 µM (inactive)

Question: What about the GI50 (SK-MEL-5) of the same compound?
Answer: 4.7 µM (inactive)

Question: And the GI50 (SK-OV-3)?
Answer: 18.4 µM (inactive)

Question: What about the GI50 (SN12C) of the same compound?
Answer: 47.4 µM (inactive)

Question: And the GI50 (SNB-19)?
Answer: 63.4 µM (inactive)

Question: What about the GI50 (SNB-75) of the same compound?
Answer: 20.8 µM (inactive)

Question: And the GI50 (SR)?
Answer: 37.2 µM (inactive)

Question: What about the GI50 (SW-620) of the same compound?
Answer: 44.6 µM (inactive)

Question: What about the GI50 (TK-10) of the same compound?
Answer: 53.2 µM (inactive)

Question: What about the GI50 (U-251) of the same compound?
Answer: 4.6 µM (inactive)

Question: What about the GI50 (UACC-257) of the same compound?
Answer: 34.4 µM (inactive)

Question: What about the GI50 (UO-31) of the same compound?
Answer: 34.1 µM (inactive)
